In PubChem BioAssay (NCI):
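96-well plates; 48 h exposure; 5 concentrations. Endpoints by linear interpolation between flanking doses. Not reached: highest tested concentration assigned. At the TGI there is no net growth.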

Legend:
Experiment in all cases: NCI-60 cell line screen, 48 h
786-0 renal = system: 786-0 renal
A498 renal = system: A498 renal
A549 NSCLC = system: A549 NSCLC
ACHN renal = system: ACHN renal
BT-549 breast = system: BT-549 breast
CAKI-1 renal = system: CAKI-1 renal
CCRF-CEM leukemia = system: CCRF-CEM leukemia
COLO 205 colon = system: COLO 205 colon
EKVX NSCLC = system: EKVX NSCLC
HCT-116 colon = system: HCT-116 colon
HCT-15 colon = system: HCT-15 colon
HL-60(TB) leukemia = system: HL-60(TB) leukemia
HOP-62 NSCLC = system: HOP-62 NSCLC
HOP-92 NSCLC = system: HOP-92 NSCLC
HS 578T breast = system: HS 578T breast
HT29 colon = system: HT29 colon
IGROV1 ovarian = system: IGROV1 ovarian
K-562 leukemia = system: K-562 leukemia
KM12 colon = system: KM12 colon
LOX IMVI melanoma = system: LOX IMVI melanoma
M14 melanoma = system: M14 melanoma
MALME-3M melanoma = system: MALME-3M melanoma
MCF7 breast = system: MCF7 breast
MDA-MB-231 breast = system: MDA-MB-231 breast
MDA-MB-435 = system: MDA-MB-435
MDA-N = system: MDA-N
MOLT-4 leukemia = system: MOLT-4 leukemia
NCI-H226 lung = system: NCI-H226 lung
NCI-H23 lung = system: NCI-H23 lung
NCI-H460 lung = system: NCI-H460 lung
NCI-H522 lung = system: NCI-H522 lung
NCI/ADR-RES ovarian = system: NCI/ADR-RES ovarian
OVCAR-3 ovarian = system: OVCAR-3 ovarian
OVCAR-4 ovarian = system: OVCAR-4 ovarian
OVCAR-5 ovarian = system: OVCAR-5 ovarian
OVCAR-8 ovarian = system: OVCAR-8 ovarian
PC-3 prostate = system: PC-3 prostate
RPMI-8226 leukemia = system: RPMI-8226 leukemia
RXF 393 renal = system: RXF 393 renal
SF-268 CNS = system: SF-268 CNS
SF-295 CNS = system: SF-295 CNS
SF-539 CNS = system: SF-539 CNS
SK-MEL-2 melanoma = system: SK-MEL-2 melanoma
SK-MEL-5 melanoma = system: SK-MEL-5 melanoma
SK-OV-3 ovarian = system: SK-OV-3 ovarian
SNB-19 CNS = system: SNB-19 CNS
SR leukemia = system: SR leukemia
SW-620 colon = system: SW-620 colon
T-47D breast = system: T-47D breast
TK-10 renal = system: TK-10 renal
U251 CNS = system: U251 CNS
UACC-257 melanoma = system: UACC-257 melanoma
UACC-62 melanoma = system: UACC-62 melanoma
UO-31 renal = system: UO-31 renal
DU-145 prostate = system: DU-145 prostate
HCC-2998 colon = system: HCC-2998 colon
SK-MEL-28 melanoma = system: SK-MEL-28 melanoma
SN12C renal = system: SN12C renal

Compound: CC1CC(=O)Nc2nc3ccccc3n21 (stereo not drawn)
- TGI (786-0 renal): > 100 µM
- TGI (A498 renal): > 100 µM
- TGI (A549 NSCLC): > 100 µM
- TGI (ACHN renal): > 100 µM
- TGI (BT-549 breast): > 100 µM
- TGI (CAKI-1 renal): > 100 µM
- TGI (CCRF-CEM leukemia): > 100 µM
- TGI (COLO 205 colon): > 100 µM
- TGI (EKVX NSCLC): > 100 µM
- TGI (HCT-116 colon): > 100 µM
- TGI (HCT-15 colon): > 100 µM
- TGI (HL-60(TB) leukemia): > 100 µM
- TGI (HOP-62 NSCLC): > 100 µM
- TGI (HOP-92 NSCLC): > 100 µM
- TGI (HS 578T breast): > 100 µM
- TGI (HT29 colon): > 100 µM
- TGI (IGROV1 ovarian): > 100 µM
- TGI (K-562 leukemia): > 100 µM
- TGI (KM12 colon): > 100 µM
- TGI (LOX IMVI melanoma): > 100 µM
- TGI (M14 melanoma): > 100 µM
- TGI (MALME-3M melanoma): > 100 µM
- TGI (MCF7 breast): > 100 µM
- TGI (MDA-MB-231 breast): > 100 µM
- TGI (MDA-MB-435): > 100 µM
- TGI (MDA-N): > 100 µM
- TGI (MOLT-4 leukemia): > 100 µM
- TGI (NCI-H226 lung): > 100 µM
- TGI (NCI-H23 lung): > 100 µM
- TGI (NCI-H460 lung): > 100 µM
- TGI (NCI-H522 lung): > 100 µM
- TGI (NCI/ADR-RES ovarian): > 100 µM
- TGI (OVCAR-3 ovarian): > 100 µM
- TGI (OVCAR-4 ovarian): > 100 µM
- TGI (OVCAR-5 ovarian): > 100 µM
- TGI (OVCAR-8 ovarian): > 100 µM
- TGI (PC-3 prostate): > 100 µM
- TGI (RPMI-8226 leukemia): > 100 µM
- TGI (RXF 393 renal): > 100 µM
- TGI (SF-268 CNS): > 100 µM
- TGI (SF-295 CNS): > 100 µM
- TGI (SF-539 CNS): > 100 µM
- TGI (SK-MEL-2 melanoma): > 100 µM
- TGI (SK-MEL-5 melanoma): > 100 µM
- TGI (SK-OV-3 ovarian): > 100 µM
- TGI (SNB-19 CNS): > 100 µM
- TGI (SR leukemia): > 100 µM
- TGI (SW-620 colon): > 100 µM
- TGI (T-47D breast): > 100 µM
- TGI (TK-10 renal): > 100 µM
- TGI (U251 CNS): > 100 µM
- TGI (UACC-257 melanoma): > 100 µM
- TGI (UACC-62 melanoma): > 100 µM
- TGI (UO-31 renal): > 100 µM

Compound: Cc1cc2[nH]c3c(C#N)c4c(c(=O)n3c2cc1C)CCCC4
- TGI (786-0 renal): > 100 µM
- TGI (A498 renal): > 100 µM
- TGI (A549 NSCLC): > 100 µM
- TGI (ACHN renal): > 100 µM
- TGI (BT-549 breast): > 100 µM
- TGI (CAKI-1 renal): > 100 µM
- TGI (CCRF-CEM leukemia): > 100 µM
- TGI (COLO 205 colon): > 100 µM
- TGI (DU-145 prostate): > 100 µM
- TGI (EKVX NSCLC): > 100 µM
- TGI (HCC-2998 colon): > 100 µM
- TGI (HCT-116 colon): > 100 µM
- TGI (HCT-15 colon): > 100 µM
- TGI (HL-60(TB) leukemia): > 100 µM
- TGI (HOP-92 NSCLC): > 100 µM
- TGI (HS 578T breast): > 100 µM
- TGI (HT29 colon): > 100 µM
- TGI (IGROV1 ovarian): > 100 µM
- TGI (K-562 leukemia): > 100 µM
- TGI (KM12 colon): > 100 µM
- TGI (LOX IMVI melanoma): > 100 µM
- TGI (M14 melanoma): 27.6 µM
- TGI (MALME-3M melanoma): > 100 µM
- TGI (MCF7 breast): > 100 µM
- TGI (MDA-MB-231 breast): > 100 µM
- TGI (MDA-MB-435): > 100 µM
- TGI (MDA-N): > 100 µM
- TGI (MOLT-4 leukemia): > 100 µM
- TGI (NCI-H226 lung): > 100 µM
- TGI (NCI-H23 lung): > 100 µM
- TGI (NCI-H460 lung): > 100 µM
- TGI (NCI-H522 lung): > 100 µM
- TGI (NCI/ADR-RES ovarian): > 100 µM
- TGI (OVCAR-3 ovarian): > 100 µM
- TGI (OVCAR-4 ovarian): > 100 µM
- TGI (OVCAR-5 ovarian): 32.7 µM
- TGI (OVCAR-8 ovarian): > 100 µM
- TGI (PC-3 prostate): > 100 µM
- TGI (SF-268 CNS): > 100 µM
- TGI (SF-295 CNS): 29.5 µM
- TGI (SF-539 CNS): > 100 µM
- TGI (SK-MEL-2 melanoma): > 100 µM
- TGI (SK-MEL-28 melanoma): > 100 µM
- TGI (SK-MEL-5 melanoma): > 100 µM
- TGI (SK-OV-3 ovarian): 27.1 µM
- TGI (SN12C renal): > 100 µM
- TGI (SNB-19 CNS): > 100 µM
- TGI (SW-620 colon): > 100 µM
- TGI (T-47D breast): > 100 µM
- TGI (TK-10 renal): > 100 µM
- TGI (U251 CNS): > 100 µM
- TGI (UACC-257 melanoma): > 100 µM
- TGI (UACC-62 melanoma): > 100 µM
- TGI (UO-31 renal): > 100 µM
